Reference: patent US20240132489A1, “AROMATIC HETEROCYCLIC COMPOUND, PHARMACEUTICAL COMPOSITION, AND USE THEREOF” (GT APEIRON THERAPEUTICS LIMITED, priority 2020, published 2024)
Structures can show the parent of a compound that is named as a salt.

Legend:
[1] = tested on: A2780 cells; experiment: Cell bioactivity detection (CyQuant), A2780; assay type: cell-based, human; conditions: Homo sapiens, A2780, 72 h, ovarian carcinoma cells A2780, 72 hours
Protocol: (§1) Trypsinization was performed on A2780 and HCC70 cells. Cell suspensions were respectively transferred to 15 mL of centrifuge tubes and centrifuged at 800 rpm for 5 min. The supernatant was discarded. Resuspension in a fresh culture medium (RPMI 1640+10% FBS) was performed. After counting, the cells were inoculated at 2000/well in a 384-well plate (50 φL of 1640+10% FBS culture medium was added to the 2nd line and the 23rd line of the 384-well plate, and 50 μL of DPBS was added to surrounding wells). Incubation in an incubator (37° C., 5% CO2) was performed overnight.
(§2) The compound was added to the well plate the next day. The compound had the highest concentration of 10 μM and was diluted at the ratio of 1:4 to form 9 concentrations. The positive compound Paclitaxel had the highest concentration of 1 μM and was diluted at the ratio of 1:3 to form 9 concentrations. The DMSO content of each well was unified to 0.2%. A cell plate was centrifuged at 800 rpm for 30 seconds. Incubation for 72 hours in an incubator (37° C., 5% CO2) was performed. On the fourth day, a Cyquant reagent (3×) was prepared according to kit instructions. Each 384-well plate was prepared in the following proportions: DPBS: 11.568 mL, CyQuant® Direct nucleic acid stain: 72 μL, CyQuant® Direct background suppressor: 360 ILL. The plates were uniformly mixed and placed for standby application at room temperature. The cell plate was taken out and placed at room temperature to be balanced for 30 min. 25 μL of Cyquant reagent (3×) was dispensed to the cells in each well of the 384-well plates by using a Multi-drop dispenser. Incubation at 37° C. for 60 or more minutes was performed. The plates were read by Acumen (Acumen was configured to have a 488 nm excitation wavelength). IC50 results were analyzed by XLFIT5 of the IDBS company.

[2] = biological target: CDK2/cyclin E1 complex (Homo sapiens (Human), UniProt P24941); experiment: In vitro enzymatic inhibitory activity test, CDK2; assay type: biochemical; conditions: Caliper mobility shift, 180 min at 27° C.
Protocol: CDK7/CyclinH was diluted in a test buffer solution (20 mM MES PH6.75, 0.01% Tween20, 50 ug/mL BSA, 6 mM MgCl2) to obtain a corresponding enzyme solution with a 2.4× concentration. CDK2/CyclinE1 was diluted in a test buffer solution (20 mM MES PH6.75, 0.01% Tween20, 50 ug/mL BSA, 6 mM MgCl2) to obtain a corresponding enzyme solution with a 2.4× concentration. CDK9/CyclinT1 was diluted in a test buffer solution (20 mM MES PH6.75, 0.01% Tween20, 50 ug/mL BSA, 10 mM MgCl2) to obtain a corresponding enzyme solution with a 2.4× concentration. CDK12/CyclinK was diluted in a test buffer solution (80 mM MES PH6.5, 0.01% Tween20, 50 ug/mL BSA, 10 mM MgCl2) to obtain a corresponding enzyme solution with a 2.4× concentration. […] 2 ul of a test compound solution was mixed with 5 ul of enzyme solution. After incubating for 10 min, 5 ul of the mixed solution of the polypeptide substrate and ATP was added. After incubating at 27° C. for 180 min, 4 uL of EDTA with a 120 mM concentration was added to each sample to stop the reaction. […] A CDK9/cyclin TI complex (8 nM) and a “5-FAM-CDK9tide” peptide substrate (2 μM, synthetic fluorophore labeled peptide having the following sequence: 5-FAM-GSRTPMY-NH2, where 5-FAM was as defined above, and NH2 represented C-terminal amide) were used for testing the CDK9 inhibition. […] A CDK2/cyclin E1 complex (0.5 nM) and the “5-FAM-CDK7tide” (2 μM) as defined above were used for testing the CDK2 inhibition.
(§3) Electrophoretic separation was performed on Caliper EZ Reader II by means of a fluorogenic substrate and a phosphorylated product to analyze the reaction mixture. Data were calculated by using GraphPad Prism version 6.0. IC50 values were adjusted by means of a nonlinear regression model using a dose-response curve.

[3] = biological target: CDK9/CyclinT1 (Homo sapiens (Human), UniProt P50750); experiment: In vitro enzymatic inhibitory activity test, CDK9; assay type: biochemical; conditions: Caliper mobility shift, 180 min at 27° C.
CDK9/CyclinT1, sequence (P50750 whole entry, species assumed): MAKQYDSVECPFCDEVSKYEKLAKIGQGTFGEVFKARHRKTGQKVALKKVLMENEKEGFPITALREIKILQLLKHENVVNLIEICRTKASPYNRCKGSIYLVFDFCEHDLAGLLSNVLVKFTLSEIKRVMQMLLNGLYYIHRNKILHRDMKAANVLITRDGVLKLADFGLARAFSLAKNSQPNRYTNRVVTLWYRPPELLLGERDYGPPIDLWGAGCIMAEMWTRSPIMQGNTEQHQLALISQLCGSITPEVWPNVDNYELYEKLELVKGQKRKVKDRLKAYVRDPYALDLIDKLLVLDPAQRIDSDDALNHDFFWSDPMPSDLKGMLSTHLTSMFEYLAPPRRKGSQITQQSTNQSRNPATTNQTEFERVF
CDK9/CyclinT1, sequence (O60563 whole entry partner, species assumed): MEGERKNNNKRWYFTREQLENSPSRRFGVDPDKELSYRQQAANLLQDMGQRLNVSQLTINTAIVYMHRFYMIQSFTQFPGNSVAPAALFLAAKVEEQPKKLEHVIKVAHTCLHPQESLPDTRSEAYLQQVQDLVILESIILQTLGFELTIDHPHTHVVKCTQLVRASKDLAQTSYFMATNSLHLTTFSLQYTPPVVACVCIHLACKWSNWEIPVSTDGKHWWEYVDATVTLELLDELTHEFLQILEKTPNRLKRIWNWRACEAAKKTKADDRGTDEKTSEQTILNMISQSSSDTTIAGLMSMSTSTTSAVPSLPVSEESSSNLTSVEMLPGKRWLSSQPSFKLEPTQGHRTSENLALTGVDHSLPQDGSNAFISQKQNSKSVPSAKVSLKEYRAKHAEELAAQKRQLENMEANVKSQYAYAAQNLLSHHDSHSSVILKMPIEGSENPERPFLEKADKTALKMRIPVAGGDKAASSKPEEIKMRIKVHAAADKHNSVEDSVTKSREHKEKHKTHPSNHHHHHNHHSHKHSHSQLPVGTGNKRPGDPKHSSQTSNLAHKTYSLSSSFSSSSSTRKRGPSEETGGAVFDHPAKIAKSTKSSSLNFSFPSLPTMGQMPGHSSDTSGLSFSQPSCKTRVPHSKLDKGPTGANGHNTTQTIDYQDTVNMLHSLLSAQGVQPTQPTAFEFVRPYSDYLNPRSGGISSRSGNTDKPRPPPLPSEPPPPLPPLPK
Protocol: (§4) CDK7/CyclinH was diluted in a test buffer solution (20 mM MES PH6.75, 0.01% Tween20, 50 ug/mL BSA, 6 mM MgCl2) to obtain a corresponding enzyme solution with a 2.4× concentration. CDK2/CyclinE1 was diluted in a test buffer solution (20 mM MES PH6.75, 0.01% Tween20, 50 ug/mL BSA, 6 mM MgCl2) to obtain a corresponding enzyme solution with a 2.4× concentration. CDK9/CyclinT1 was diluted in a test buffer solution (20 mM MES PH6.75, 0.01% Tween20, 50 ug/mL BSA, 10 mM MgCl2) to obtain a corresponding enzyme solution with a 2.4× concentration. CDK12/CyclinK was diluted in a test buffer solution (80 mM MES PH6.5, 0.01% Tween20, 50 ug/mL BSA, 10 mM MgCl2) to obtain a corresponding enzyme solution with a 2.4× concentration. The compounds were dissolved in dimethyl sulfoxide (DMSO) at a concentration of 10 mM. […] 2 ul of a test compound solution was mixed with 5 ul of enzyme solution. After incubating for 10 min, 5 ul of the mixed solution of the polypeptide substrate and ATP was added. After incubating at 27° C. for 180 min, 4 uL of EDTA with a 120 mM concentration was added to each sample to stop the reaction. […] A CDK9/cyclin TI complex (8 nM) and a “5-FAM-CDK9tide” peptide substrate (2 μM, synthetic fluorophore labeled peptide having the following sequence: 5-FAM-GSRTPMY-NH2, where 5-FAM was as defined above, and NH2 represented C-terminal amide) were used for testing the CDK9 inhibition. […] A CDK2/cyclin E1 complex (0.5 nM) and the “5-FAM-CDK7tide” (2 μM) as defined above were used for testing the CDK2 inhibition.
as §3

[4] = biological target: CDK12(aa686-1082)/cyclin K complex (Homo sapiens (Human), UniProt Q9NYV4); experiment: In vitro enzymatic inhibitory activity test, CDK12; assay type: biochemical; conditions: Caliper mobility shift, 180 min at 27° C.
CDK12(aa686-1082)/cyclin K complex, sequence (Q9NYV4 686-1082, species assumed): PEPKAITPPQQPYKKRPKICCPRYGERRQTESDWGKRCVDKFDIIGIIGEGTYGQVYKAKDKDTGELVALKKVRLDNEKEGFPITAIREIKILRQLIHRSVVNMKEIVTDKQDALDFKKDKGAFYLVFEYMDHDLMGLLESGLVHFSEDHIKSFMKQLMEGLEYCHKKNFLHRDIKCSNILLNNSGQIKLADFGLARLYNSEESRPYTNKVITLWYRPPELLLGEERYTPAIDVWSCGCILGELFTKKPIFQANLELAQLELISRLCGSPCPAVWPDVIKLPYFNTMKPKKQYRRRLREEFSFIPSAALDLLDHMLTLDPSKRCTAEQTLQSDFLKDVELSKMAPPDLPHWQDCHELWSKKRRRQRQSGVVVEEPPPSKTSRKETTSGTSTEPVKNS
CDK12(aa686-1082)/cyclin K complex, sequence (O75909 whole entry partner, species assumed, the tested form may be a part): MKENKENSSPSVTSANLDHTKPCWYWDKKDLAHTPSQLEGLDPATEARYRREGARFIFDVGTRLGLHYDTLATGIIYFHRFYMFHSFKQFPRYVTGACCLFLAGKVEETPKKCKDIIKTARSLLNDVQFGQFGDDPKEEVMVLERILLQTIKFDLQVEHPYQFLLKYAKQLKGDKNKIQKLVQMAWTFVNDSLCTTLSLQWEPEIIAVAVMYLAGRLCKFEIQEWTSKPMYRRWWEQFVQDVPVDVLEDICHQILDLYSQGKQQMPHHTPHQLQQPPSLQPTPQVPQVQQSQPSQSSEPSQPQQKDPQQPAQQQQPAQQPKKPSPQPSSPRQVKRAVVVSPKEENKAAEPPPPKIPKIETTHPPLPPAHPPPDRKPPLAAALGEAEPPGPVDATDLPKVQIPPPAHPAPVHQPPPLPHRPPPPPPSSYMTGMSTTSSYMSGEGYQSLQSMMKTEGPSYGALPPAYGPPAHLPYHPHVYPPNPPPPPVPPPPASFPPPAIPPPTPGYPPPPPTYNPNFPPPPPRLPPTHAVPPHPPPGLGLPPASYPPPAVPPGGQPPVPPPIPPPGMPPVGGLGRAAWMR
Protocol: as §4, §3

[5] = biological target: CDK7/cyclin H/MAT1 complex (Homo sapiens (Human), UniProt P50613); experiment: In vitro enzymatic inhibitory activity test, CDK7; assay type: biochemical; conditions: Caliper mobility shift, 180 min at 27° C.
CDK7/cyclin H/MAT1 complex, sequence (P50613 whole entry, species assumed): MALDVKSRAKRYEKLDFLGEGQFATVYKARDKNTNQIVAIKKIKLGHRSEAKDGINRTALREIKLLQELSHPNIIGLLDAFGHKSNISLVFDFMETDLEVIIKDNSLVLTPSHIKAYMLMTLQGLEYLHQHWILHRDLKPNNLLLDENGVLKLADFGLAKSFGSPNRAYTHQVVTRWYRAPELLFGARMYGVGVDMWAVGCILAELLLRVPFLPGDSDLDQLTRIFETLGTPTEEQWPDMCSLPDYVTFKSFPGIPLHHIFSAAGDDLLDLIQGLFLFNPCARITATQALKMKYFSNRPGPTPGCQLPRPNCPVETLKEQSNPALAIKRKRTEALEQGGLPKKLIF
CDK7/cyclin H/MAT1 complex, sequence (P51946 whole entry partner, species assumed): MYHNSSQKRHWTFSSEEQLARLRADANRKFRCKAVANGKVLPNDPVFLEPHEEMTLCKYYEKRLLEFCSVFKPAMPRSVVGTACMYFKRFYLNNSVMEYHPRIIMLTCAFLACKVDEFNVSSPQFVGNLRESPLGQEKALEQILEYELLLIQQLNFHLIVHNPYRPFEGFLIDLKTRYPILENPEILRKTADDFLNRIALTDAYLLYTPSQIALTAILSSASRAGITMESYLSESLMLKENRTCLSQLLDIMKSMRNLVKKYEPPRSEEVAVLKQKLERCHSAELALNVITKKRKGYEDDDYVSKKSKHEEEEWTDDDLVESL
CDK7/cyclin H/MAT1 complex, sequence (P51948 whole entry partner, species assumed): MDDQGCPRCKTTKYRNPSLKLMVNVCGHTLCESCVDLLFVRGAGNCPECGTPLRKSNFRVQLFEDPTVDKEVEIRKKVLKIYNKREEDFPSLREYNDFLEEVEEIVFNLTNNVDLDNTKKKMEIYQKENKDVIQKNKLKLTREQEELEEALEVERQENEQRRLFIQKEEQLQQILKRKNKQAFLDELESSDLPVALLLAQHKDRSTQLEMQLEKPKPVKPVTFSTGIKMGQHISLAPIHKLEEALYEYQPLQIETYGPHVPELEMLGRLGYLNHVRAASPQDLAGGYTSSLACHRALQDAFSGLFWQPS
Protocol: as §4, §3

[6] = tested on: HCC70 cells; experiment: Cell bioactivity detection (CyQuant), HCC70; assay type: cell-based; conditions: human breast cancer cells HCC70, 72 hours
Protocol: as §1, §2

IC50 [1]	IC50 [2]	IC50 [3]	IC50 [4]	IC50 [5]	Compound	IC50 ([6]; Homo sapiens, HCC70, 72 h)	IC50 [6]
19.1 nM	17500 nM	15900 nM	9320 nM	40.3 nM	FC(F)(F)c1cnc(N[C@H]2CCCNC2)nc1-c1c[nH]c2nc(N3CCC4(COC4)C3)ccc12 [Compound 8, (S)-4-(6-(2-oxa-6-azaspiro[3.4]octan-6-yl)-1H-pyrrolo[2,3-b]pyridin-3-yl)-N-(piperidin-3-yl)-5-(trifluoromethyl)pyrimidine-2-amine]	16 nM	
5.6 nM	3260 nM	9530 nM	2150 nM	10.5 nM	FC(F)(F)c1cnc(N[C@H]2CCCNC2)nc1-c1c[nH]c2nc(C3CCCCO3)ccc12 (stereo partly drawn) [Compound 30, N—((S)-piperidin-3-yl)-4-(6-(tetrahydropyran-2-yl)-1H-pyrrolo[2,3-b]pyridin-3-yl)-5-(trifluoromethyl)pyrimidine-2-amine formate]	20 nM	
7.8 nM	3470 nM	3630 nM	1100 nM	6.96 nM	FC(F)(F)c1cnc(N[C@H]2CCCNC2)nc1-c1c[nH]c2nc(C3CCOCC3)ccc12 [Compound 28, (S)—N-(piperidin-3-yl)-4-(6-(tetrahydro-2H-pyran-4-yl)-1H-pyrrolo[2,3-b]pyridin-3-yl)-5-(trifluoromethyl)pyrimidine-2-amine formate]	7.7 nM	
6.27 nM	1510 nM	1440 nM	567 nM	6.4 nM	FC(F)(F)c1cnc(N[C@H]2CCCNC2)nc1-c1c[nH]c2nc(C3CCOC3)ccc12 (single isomer, unassigned) [Compound 107]	6.77 nM	
45.5 nM	19500 nM	27700 nM	12900 nM	9.52 nM	C[C@@H]1CNC[C@@H](Nc2ncc(C(F)(F)F)c(-c3c[nH]c4nc(N5CCOC[C@@H]5C)ccc34)n2)C1 [Compound 115, 4-(6-((S)-3-methylmorpholinyl)-1H-pyrrol[2,3-b]pyridin-3-yl)-N-((3S,5S)-5-methylpiperidin-3-yl)-5-(trifluoromethyl)pyrimidine-2-amine]	42 nM	
146 nM	37600 nM	> 50000 nM	49000 nM	41.2 nM	C[C@H]1COCCN1c1ccc2c(-c3nc(N[C@H]4CCC5(CC5)NC4)ncc3C(F)(F)F)c[nH]c2n1 [Compound 70, (S)—N-(4-(6-((S)-3-methylmorpholinyl)-1H-pyrrol[2,3-b]pyridin-3-yl)-5-(trifluoromethyl)pyrimidin-2-yl)-4-azaspiro[2.5]octan-6-amine formate]	484 nM	
157 nM	> 10000 nM	4610 nM	1600 nM	28.5 nM	FC(F)(F)c1cnc(N[C@H]2CCCNC2)nc1-c1c[nH]c2cc(N3CCCC3)ccc12 [Compound 101, (S)—N-(Piperidin-3-Yl)-4-(6-(Pyrrolidin-1-Yl)-1H-Indol-3-Yl)-5-(Trifluoromethyl)Pyrimidine-2-Amine, reference compound]	232 nM	
17 nM	2250 nM	907 nM	1020 nM	12.1 nM	FC(F)(F)c1cnc(N[C@H]2CCCNC2)nc1-c1c[nH]c2nc(N3CC4COCC4C3)ccc12 (stereo partly drawn) [Compound 5, N—((S)-piperidin-3-yl)-4-(6-(tetrahydro-1H-furan[3,4-c]pyrrol-5(3H)-yl)-1H-pyrrolo[2,3-b]pyridin-3-yl)-5-(trifluoromethyl)pyrimidine-2-amine]	19 nM	
2.4 nM	3230 nM	4430 nM	2010 nM	46.8 nM	FC(F)(F)c1cnc(N[C@H]2CCCNC2)nc1-c1c[nH]c2nc(N3CCOC[C@@H]3C(F)(F)F)ccc12 [Compound 33, N—((S)-piperidin-3-yl)-5-(trifluoromethyl)-4-(6-((R)-3-(trifluoromethyl)morpholinyl)-1H-pyrrol[2,3-b]pyridin-3-yl)pyrimidine-2-amine]	12 nM	
10 nM	4150 nM	3320 nM	1120 nM	16.5 nM	FC(F)(F)c1cnc(N[C@H]2CCCNC2)nc1-c1c[nH]c2nc(N3CCC4(CC3)COC4)ccc12 [Compound 15, (S)-4-(6-(2-oxa-7-azaspiro[3.5]nonan-7-yl)-1H-pyrrolo[2,3-b]pyridin-3-yl)-N-(piperidin-3-yl)-5-(trifluoromethyl)pyrimidine-2-amine]	12 nM	
				4.76 nM	FC(F)(F)c1cnc(N[C@H]2CCCNC2)nc1-c1c[nH]c2nc(C3CCCCO3)ccc12 (stereo partly drawn) [Compound 113]		
				5.82 nM	FC(F)(F)c1cnc(N[C@@H]2CCCNC2)nc1-c1c[nH]c2nc(C3CCCCO3)ccc12 (stereo partly drawn) [Compound 112]		
	47100 nM	> 50000 nM	49100 nM	28.4 nM	C[C@H]1CC[C@H](Nc2ncc(C(F)(F)F)c(-c3c[nH]c4nc(N5CCOC[C@@H]5C)ccc34)n2)CN1 [Compound 69, 4-(6-((S)-3-methylmorpholine)-1H-pyrrol[2,3-b]pyridin-3-yl)-N-((3S,6S)-6-methylpiperidin-3-yl)-5-(trifluoromethyl)pyrimidine-2-amine]		642 nM
	> 10000 nM	> 10000 nM	> 10000 nM	82.9 nM	FC(F)(F)c1cnc(N[C@@H]2[C@@H]3CC[C@H]2NC3)nc1-c1c[nH]c2nc(N3CCOCC3)ccc12 [Compound 43, (1R,4R,7R)—N-(4-(6-morpholinyl-1H-pyrrol[2,3-b]pyridin-3-yl)-5-(trifluoromethyl)pyrimidin-2-yl)-2-azabicyclo[2.2.1]heptan-7-amine formate]	6070 nM	
